The results in this text go back to patent US11034650B2, “Compounds useful for treating a Mannheimia haemolytica or Histophilus somni infection” (Intervet Inc., priority 2016, dated 2021).

≈ marks a conversion by molar mass, not a printed value. A value given as a limit tells only on which side of the number the result lay.

Holding throughout (assay type): cell-based
In test [1] the test system is Mannheimia haemolytica MH 13093 (XB0472-6014.1, BRD field isolate). Briefly: MIC, broth-microdilution (CLSI VET01-A4), strain MH 13093. Particulars: Mannheimia haemolytica strain MH 13093, broth-microdilution; unit assumed. The gist of the method:
(§1)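 Growth inhibition is scored visually on a doubling dilution series. The reported MIC corresponds to the lowest concentration free of turbidity, with results assessed under CLSI VET01-S3.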
(Broth dilution looks for growth in wells or tubes with falling amounts of substance.)

Test [2] deals with Mannheimia haemolytica MH 6357 (M7/2, reference strain, cattle infection strain). Briefly: MIC, broth-microdilution (CLSI VET01-A4), strain MH 6357. Particulars: Mannheimia haemolytica strain MH 6357, broth-microdilution; unit assumed. In a few lines:
as §1

Test [3] deals with Pasteurella multocida PM 12080 (IV102277-0093, BRD field isolate). Briefly: MIC, broth-microdilution (CLSI VET01-A4), strain PM 12080. Particulars: Pasteurella multocida strain PM 12080, broth-microdilution; unit assumed. The gist of the method: as §1
Test [4] has as its system Pasteurella multocida PM 6267 (P 2225 (L386), reference strain, mouse infection strain). The test is described as follows: MIC, broth-microdilution (CLSI VET01-A4), strain PM 6267. Particulars: Pasteurella multocida strain PM 6267, broth-microdilution; unit assumed. In a few lines:
as §1

For test [5], the system named is Mannheimia haemolytica MH 10720 (154, BRD field isolate). Briefly: MIC, broth-microdilution (CLSI VET01-A4), strain MH 10720. Particulars: Mannheimia haemolytica strain MH 10720, broth-microdilution; unit assumed. The gist of the method:
as §1

Test [6] relates to Mannheimia haemolytica MH 6374 (ATCC 33396, reference strain). The test is described as follows: MIC, broth-microdilution (CLSI VET01-A4), strain MH 6374. Particulars: Mannheimia haemolytica strain MH 6374, broth-microdilution; unit assumed. The gist of the method:
as §1

In test [7] the test system is Mannheimia haemolytica MH 12587 (1071, BRD field isolate, macrolide-resistance: erm+, E+). The test is described as follows: MIC, broth-microdilution (CLSI VET01-A4), strain MH 12587. Particulars: Mannheimia haemolytica strain MH 12587, broth-microdilution; unit assumed. In a few lines: as §1
Test [8] deals with Pasteurella multocida PM 10775 (080130003051, BRD field isolate). The test is described as follows: MIC, broth-microdilution (CLSI VET01-A4), strain PM 10775. Particulars: Pasteurella multocida strain PM 10775, broth-microdilution; unit assumed. In a few lines:
as §1

Test [9] concerns Pasteurella multocida PM 6391 (ATCC 43137, reference strain). The test is described as follows: MIC, broth-microdilution (CLSI VET01-A4), strain PM 6391. Particulars: Pasteurella multocida strain PM 6391, broth-microdilution; unit assumed. In a few lines:
as §1

For test [10], the system named is Mannheimia haemolytica MH 13065 (XB0446-6003.9, BRD field isolate). Briefly: MIC, broth-microdilution (CLSI VET01-A4), strain MH 13065. Particulars: Mannheimia haemolytica strain MH 13065, broth-microdilution; unit assumed. In a few lines: as §1

With `CC(C)([C@H](NC(=O)c1ccc(C#Cc2ccc(CNCC(F)(F)F)nc2)cc1)C(=O)NO)S(C)(=O)=O` [Compound 355], the MIC MH 13093 in [1] stood at 1.6 µg/mL (≈ 3.04 µM). In addition, the MIC MH 6357 in test [2] came to 0.8 µg/mL (≈ 1.52 µM). Besides, in [3], the MIC PM 12080 is at most 0.1 µg/mL. Further, in test [4], the MIC PM 6267 was 0.8 µg/mL (≈ 1.52 µM). This compound also returned an MIC MH 10720 in test [5] of at most 0.1 µg/mL. In test [6], the MIC MH 6374 is 1.6 µg/mL (≈ 3.04 µM). In test [7], this compound came in with an MIC MH 12587 of 1.6 µg/mL (≈ 3.04 µM). In addition, in [8], the MIC PM 10775 is at most 0.1 µg/mL. For the same compound, the MIC PM 6391 in test [9] worked out at 0.2 µg/mL (≈ 0.38 µM). Further, the MIC MH 13065 in [10] came out at 0.8 µg/mL (≈ 1.52 µM).

`CC(C)([C@H](NC(=O)c1ccc(C#Cc2ccc(CNCc3ncccn3)nc2)cc1)C(=O)NO)S(C)(=O)=O` [Compound 356]: in test [1], the MIC MH 13093 was found to be 12.5 µg/mL (≈ 23.3 µM). The compound further came in with an MIC MH 6357 in test [2] of 6.3 µg/mL (≈ 11.7 µM). The same compound showed an MIC PM 12080 in [3] of 1.6 µg/mL (≈ 2.98 µM). In test [4], this compound displayed an MIC PM 6267 of 6.3 µg/mL (≈ 11.7 µM). This compound showed an MIC MH 10720 in test [5] of 3.1 µg/mL (≈ 5.78 µM). This compound gave an MIC MH 6374 in test [6] of 6.3 µg/mL (≈ 11.7 µM). Besides, the MIC MH 12587 in test [7] worked out at 12.5 µg/mL (≈ 23.3 µM). Besides, the MIC PM 10775 in [8] came out at 0.2 µg/mL (≈ 0.373 µM). Besides, the MIC PM 6391 in test [9] stood at 3.1 µg/mL (≈ 5.78 µM). Also, the MIC MH 13065 in test [10] is 6.3 µg/mL (≈ 11.7 µM).

`Cc1cnc(CNCc2ccc(C#Cc3ccc(C(=O)N[C@H](C(=O)NO)C(C)(C)S(C)(=O)=O)cc3)cn2)o1` [Compound 357] showed an MIC MH 13093 in test [1] of 1.6 µg/mL (≈ 2.97 µM). Further, the MIC MH 6357 in test [2] stood at 0.8 µg/mL (≈ 1.48 µM). Also, the MIC PM 12080 in test [3] turned out to be 0.2 µg/mL (≈ 0.371 µM). Besides, the MIC PM 6267 in [4] was 0.8 µg/mL (≈ 1.48 µM). Moreover, in test [5], the MIC MH 10720 is at most 0.1 µg/mL. Further, in [6], the MIC MH 6374 is 0.8 µg/mL (≈ 1.48 µM). Also, in test [7], the MIC MH 12587 turned out to be 1.6 µg/mL (≈ 2.97 µM). In [8], this compound returned an MIC PM 10775 of at most 0.1 µg/mL. This compound displayed an MIC PM 6391 in test [9] of 0.4 µg/mL (≈ 0.741 µM). This compound came in with an MIC MH 13065 in test [10] of 0.8 µg/mL (≈ 1.48 µM).

The compound `CC(C)(O)[C@H](NC(=O)c1ccc(C#Cc2ccc(CNCC#N)s2)cc1)C(=O)NO` [Compound 358] yielded an MIC MH 13093 in test [1] of 6.3 µg/mL (≈ 14.8 µM). Also, the MIC MH 6357 in test [2] amounted to 3.1 µg/mL (≈ 7.27 µM). Also, in test [3], the MIC PM 12080 turned out to be 0.8 µg/mL (≈ 1.88 µM). In [4], this compound displayed an MIC PM 6267 of 0.8 µg/mL (≈ 1.88 µM). Further, the MIC MH 10720 in [5] is 0.8 µg/mL (≈ 1.88 µM). In test [6], this compound returned an MIC MH 6374 of 1.6 µg/mL (≈ 3.75 µM). Also, the MIC MH 12587 in test [7] was found to be 6.3 µg/mL (≈ 14.8 µM). The MIC PM 10775 in [8] came out at 0.2 µg/mL (≈ 0.469 µM). Besides, in test [9], the MIC PM 6391 is 1.6 µg/mL (≈ 3.75 µM). In test [10], this compound registered an MIC MH 13065 of 6.3 µg/mL (≈ 14.8 µM).

Turning to `CC(C)(O)[C@H](NC(=O)c1ccc(C#Cc2ccc(CNCc3nccs3)s2)cc1)C(=O)NO` [Compound 359], the MIC MH 13093 in test [1] came out at 0.4 µg/mL (≈ 0.825 µM). In [2], this compound displayed an MIC MH 6357 of 0.4 µg/mL (≈ 0.825 µM). The compound further had an MIC PM 12080 in test [3] of at most 0.1 µg/mL. The compound further showed an MIC PM 6267 in test [4] of at most 0.1 µg/mL. In addition, the MIC MH 10720 in test [5] was at most 0.1 µg/mL. The compound also registered an MIC MH 6374 in [6] of 0.2 µg/mL (≈ 0.413 µM). Moreover, in [7], the MIC MH 12587 amounted to 0.4 µg/mL (≈ 0.825 µM). Also, in test [8], the MIC PM 10775 came to 0.2 µg/mL (≈ 0.413 µM). Moreover, the MIC PM 6391 in test [9] is at most 0.1 µg/mL. Moreover, the MIC MH 13065 in test [10] was 0.2 µg/mL (≈ 0.413 µM).

The compound `CC(C)(O)[C@H](NC(=O)c1ccc(C#Cc2ccc(CNCc3ncccn3)s2)cc1)C(=O)NO` [Compound 360] registered an MIC MH 13093 in [1] of 6.3 µg/mL (≈ 13.1 µM). The MIC MH 6357 in test [2] was found to be 0.8 µg/mL (≈ 1.67 µM). This compound gave an MIC PM 12080 in [3] of 0.4 µg/mL (≈ 0.834 µM). In [4], the MIC PM 6267 is 0.4 µg/mL (≈ 0.834 µM). In test [5], the MIC MH 10720 was 0.8 µg/mL (≈ 1.67 µM). This compound displayed an MIC MH 6374 in test [6] of 1.6 µg/mL (≈ 3.34 µM). This compound also came in with an MIC MH 12587 in test [7] of 6.3 µg/mL (≈ 13.1 µM). Also, the MIC PM 10775 in [8] is at most 0.1 µg/mL. In addition, in test [9], the MIC PM 6391 is 1.6 µg/mL (≈ 3.34 µM). The compound further yielded an MIC MH 13065 in [10] of 1.6 µg/mL (≈ 3.34 µM).

As for `C=CCNCc1ccc(C#Cc2ccc(C(=O)N[C@H](C(=O)NO)C(C)(C)O)cc2)cn1` [Compound 361], in [1], the MIC MH 13093 is 3.1 µg/mL (≈ 7.34 µM). Further, the MIC MH 6357 in test [2] worked out at 3.1 µg/mL (≈ 7.34 µM). The MIC PM 12080 in [3] came out at 0.2 µg/mL (≈ 0.473 µM). For the same compound, the MIC PM 6267 in [4] turned out to be 0.4 µg/mL (≈ 0.947 µM). The same compound showed an MIC MH 10720 in test [5] of 0.4 µg/mL (≈ 0.947 µM). This compound gave an MIC MH 6374 in test [6] of 0.8 µg/mL (≈ 1.89 µM). The same compound displayed an MIC MH 12587 in test [7] of 3.1 µg/mL (≈ 7.34 µM). The compound also came in with an MIC PM 10775 in [8] of at most 0.1 µg/mL. In addition, the MIC PM 6391 in test [9] is 0.4 µg/mL (≈ 0.947 µM). This compound also yielded an MIC MH 13065 in test [10] of 1.6 µg/mL (≈ 3.79 µM).
